Data as given in PMC8632988, “Inhibition of SYK and cSrc kinases can protect bone and cartilage in preclinical models of osteoarthritis and rheumatoid arthritis” (Scientific Reports, 2021).
Values joined by “and” are separate entries in the source; they are usually repeats but may differ in a detail not shown here. Identical values can stand only once. Like-named read-outs stand apart in the source and are kept apart here.

Tests used:
rat primary chondrocytes = assay: Hypertrophic-like changes in IL-1β treated primary chondrocytes; format: cell-based; conditions: for Relative fold expression, aggrecan / Relative fold expression, type II collagen: control = 1
Procedure: The experiment was performed at Atlantic Bone Screen, France. To isolate primary chondrocytes, Sprague Dawley 3 weeks old rats were euthanized and their hind limbs were collected. Knee cartilage shavings were digested with collagenase in serum-free Dulbecco’s Modified Eagle’s Medium (DMEM). Once digested, the cell suspension was centrifuged and resuspended in DMEM containing 10% fetal bovine serum (FBS). Then the cells were plated on tissue culture plastic at a density of 10 000 cells∙cm^−2 and were amplified in monolayer in culture medium (DMEM/FCS-10% supplemented with HEPES (25 mM)) until passage 1 and frozen at − 80 °C. Before study rat’s chondrocytes were seeded and cultured in monolayers in 12-well plates for 24 h. After that the cells were treated for three days with IL-1β (10 ng/mL) and MT-SYK-03; […] and vehicle (DMSO, 0.3% in cell medium) controls were also carried out in triplicate. At the end of the treatment, chondrocytes were lysed, and total RNA was purified using the NucleoSpin RNA II kit (Macherey Nagel). Total RNAs (2 μg) were retro-transcribed using M-MLV RT (Lifetechnologies) and obtained cDNAs (10 ng) were used for qPCR to determine steady-state levels of type II collagen and aggrecan mRNAs (levels of RPL19 and β-actin mRNAs were used as controls). Each reaction was set up as follows: 5 μL of iQ SYBR Green Supermix (Biorad, ref 1,708,882), 0.6 μL of forward primer (5 μM), and 0.6 μL of reverse primer (5 μM), 1.8 μL H2O, and 2 μL of cDNA. All qPCRs (72 qPCRs per marker) were run on a DNA Engine Thermal Cycler Chromo 4 in triplicates and analyzed using REST software.

SYK = SYK (Homo sapiens, UniProt P43405); assay: SYK inhibition luminescent assay; format: biochemical; design: 6xHis; made in house; host or cells: Sf9
Procedure: Luminescent assay was performed at A. N. Bakh Institute of Biochemistry (Moscow, Russia). Recombinant 6xHis-SYK kinase (expressed in Sf9 cells) was obtained as described previously. […] After incubation (20 min) Kinase-Glo reagent (Promega) was added. The luminescence was detected using the Fusion Universal Microplate Analyzer (PerkinElmer USA).

COc1cc(Nc2ncnc(Nc3cc4c(cn3)NC(=O)C(C)(C)O4)n2)cc(OC)c1OC [MT-SYK-03]
Aggrecan gene expression (rat primary chondrocytes; IL-1β 10 ng/mL, three days): increased
Type II collagen gene expression (rat primary chondrocytes; IL-1β 10 ng/mL, three days): increased
Relative fold expression, aggrecan (rat primary chondrocytes; IL-1β + MT-SYK-03 0.4 μM): 0.20
Relative fold expression, type II collagen (rat primary chondrocytes; IL-1β + MT-SYK-03 0.4 μM): 0.12
Relative fold expression, aggrecan (rat primary chondrocytes; IL-1β + MT-SYK-03 2 μM): 0.42
Relative fold expression, type II collagen (rat primary chondrocytes; IL-1β + MT-SYK-03 2 μM): 0.12
Relative fold expression, aggrecan (rat primary chondrocytes; IL-1β + MT-SYK-03 10 μM): 0.46
Relative fold expression, type II collagen (rat primary chondrocytes; IL-1β + MT-SYK-03 10 μM): 0.09
IC50 (SYK; read-out: IC50, luminescent assay): 23 nM
IC50 (SYK; span of luminescent and radiometric assays, read-out: IC50 (SYK), as given in Figure 1c): 14 nM and 23 to 40 nM
